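GI50: concentration for 50% inhibition of growth. TGI: total growth inhibition.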
Key:
Assay in all cases: inhibition of tumour cell growth, NCI panel, 384-well format
CAKI-1 renal = system: CAKI-1 renal
SK-MEL-5 melanoma = system: SK-MEL-5 melanoma
MALME-3M melanoma = system: MALME-3M melanoma
OVCAR-4 ovarian = system: OVCAR-4 ovarian
IGROV1 ovarian = system: IGROV1 ovarian
OVCAR-3 ovarian = system: OVCAR-3 ovarian
OVCAR-5 ovarian = system: OVCAR-5 ovarian
SF-539 CNS = system: SF-539 CNS
UACC-257 melanoma = system: UACC-257 melanoma
HL-60(TB) leukemia = system: HL-60(TB) leukemia
MCF7 breast = system: MCF7 breast
HT29 colon = system: HT29 colon
A549 NSCLC = system: A549 NSCLC
HCC-2998 colon = system: HCC-2998 colon
NCI/ADR-RES ovarian = system: NCI/ADR-RES ovarian
HS 578T breast = system: HS 578T breast
MOLT-4 leukemia = system: MOLT-4 leukemia
PC-3 prostate = system: PC-3 prostate
TK-10 renal = system: TK-10 renal
DU-145 prostate = system: DU-145 prostate
SNB-19 CNS = system: SNB-19 CNS
SF-268 CNS = system: SF-268 CNS
SK-OV-3 ovarian = system: SK-OV-3 ovarian
SF-295 CNS = system: SF-295 CNS
A498 renal = system: A498 renal
MDA-MB-231 breast = system: MDA-MB-231 breast
NCI-H522 lung = system: NCI-H522 lung
K-562 leukemia = system: K-562 leukemia
ACHN renal = system: ACHN renal
786-0 renal = system: 786-0 renal
HOP-62 NSCLC = system: HOP-62 NSCLC
HOP-92 NSCLC = system: HOP-92 NSCLC
M14 melanoma = system: M14 melanoma
T-47D breast = system: T-47D breast
UACC-62 melanoma = system: UACC-62 melanoma
HCT-15 colon = system: HCT-15 colon
NCI-H460 NSCLC = system: NCI-H460 NSCLC
U251 glioblastoma = system: U251 glioblastoma
MDA-MB-435 melanoma = system: MDA-MB-435 melanoma
HCT-116 colon = system: HCT-116 colon
CCRF-CEM leukemia = system: CCRF-CEM leukemia
NCI-H23 lung = system: NCI-H23 lung
SNB-75 CNS = system: SNB-75 CNS
NCI-H322M lung = system: NCI-H322M lung
COLO 205 colon = system: COLO 205 colon
KM12 colon = system: KM12 colon
SN12C renal = system: SN12C renal
RXF 393 renal = system: RXF 393 renal
SK-MEL-2 melanoma = system: SK-MEL-2 melanoma
SK-MEL-28 melanoma = system: SK-MEL-28 melanoma
NCI-H226 lung = system: NCI-H226 lung
SW-620 colon = system: SW-620 colon
EKVX NSCLC = system: EKVX NSCLC
OVCAR-8 ovarian = system: OVCAR-8 ovarian
SR leukemia = system: SR leukemia
LOX IMVI melanoma = system: LOX IMVI melanoma
UO-31 renal = system: UO-31 renal
BT-549 breast = system: BT-549 breast
RPMI-8226 leukemia = system: RPMI-8226 leukemia

## CN1C(=O)[C@@H](NC(=O)[C@H](CCC(F)(F)F)[C@H](CCC(F)(F)F)C(N)=O)N=C(c2ccccc2)c2ccccc21
CAKI-1 renal
  GI50: 58.2 µM
  TGI: > 100 µM
SK-MEL-5 melanoma
  GI50: > 59.4 µM
  TGI: > 100 µM
MALME-3M melanoma
  GI50: > 100 µM
  TGI: > 100 µM
OVCAR-4 ovarian
  GI50: 43.4 µM
  TGI: > 100 µM
IGROV1 ovarian
  GI50: > 100 µM
  TGI: > 100 µM
OVCAR-3 ovarian
  GI50: 55.9 µM
  TGI: > 100 µM
OVCAR-5 ovarian
  GI50: > 100 µM
  TGI: > 100 µM
SF-539 CNS
  GI50: > 100 µM
  TGI: > 100 µM
UACC-257 melanoma
  GI50: > 63.2 µM
  TGI: > 100 µM
HL-60(TB) leukemia
  GI50: > 51.6 µM
  TGI: > 100 µM
MCF7 breast
  GI50: 40.9 µM
  TGI: > 100 µM
HT29 colon
  GI50: 62.5 µM
  TGI: > 100 µM
A549 NSCLC
  GI50: 67.5 µM
  TGI: > 100 µM
HCC-2998 colon
  GI50: > 100 µM
  TGI: > 100 µM
NCI/ADR-RES ovarian
  GI50: > 100 µM
  TGI: > 100 µM
HS 578T breast
  GI50: 24.7 µM
  TGI: > 100 µM
MOLT-4 leukemia
  GI50: 19.8 µM
  TGI: > 100 µM
PC-3 prostate
  GI50: > 94.6 µM
  TGI: > 100 µM
TK-10 renal
  GI50: > 100 µM
  TGI: > 100 µM
DU-145 prostate
  GI50: > 100 µM
  TGI: > 100 µM
SNB-19 CNS
  GI50: > 100 µM
  TGI: > 100 µM
SF-268 CNS
  GI50: > 43.9 µM
  TGI: > 90.2 µM
SK-OV-3 ovarian
  GI50: > 100 µM
  TGI: > 100 µM
SF-295 CNS
  GI50: 99.5 µM
  TGI: > 100 µM
A498 renal
  GI50: 42 µM
  TGI: > 100 µM
MDA-MB-231 breast
  GI50: > 93.3 µM
  TGI: > 100 µM
NCI-H522 lung
  GI50: 79.9 µM
  TGI: > 100 µM
K-562 leukemia
  GI50: 71.6 µM
  TGI: > 100 µM
ACHN renal
  GI50: > 100 µM
  TGI: > 100 µM
786-0 renal
  GI50: 87.1 µM
  TGI: > 100 µM
HOP-62 NSCLC
  GI50: > 100 µM
  TGI: > 100 µM
HOP-92 NSCLC
  GI50: 33.9 µM
  TGI: > 100 µM
M14 melanoma
  GI50: > 100 µM
  TGI: > 100 µM
T-47D breast
  GI50: 14.6 µM
  TGI: 65 µM
UACC-62 melanoma
  GI50: > 100 µM
  TGI: > 100 µM
HCT-15 colon
  GI50: > 95.7 µM
  TGI: > 100 µM
NCI-H460 NSCLC
  GI50: 84.4 µM
  TGI: > 100 µM
U251 glioblastoma
  GI50: 98.8 µM
  TGI: > 100 µM
MDA-MB-435 melanoma
  GI50: > 100 µM
  TGI: > 100 µM
HCT-116 colon
  GI50: > 92.7 µM
  TGI: > 100 µM
CCRF-CEM leukemia
  GI50: 53.3 µM
  TGI: > 100 µM
NCI-H23 lung
  GI50: > 100 µM
  TGI: > 100 µM
SNB-75 CNS
  GI50: 17.3 µM
  TGI: 96.8 µM
NCI-H322M lung
  GI50: > 100 µM
  TGI: > 100 µM
COLO 205 colon
  GI50: > 79.5 µM
  TGI: > 100 µM
KM12 colon
  GI50: > 100 µM
  TGI: > 100 µM
SN12C renal
  GI50: > 100 µM
  TGI: > 100 µM
RXF 393 renal
  GI50: 23.9 µM
  TGI: > 84.7 µM
SK-MEL-2 melanoma
  GI50: > 100 µM
  TGI: > 100 µM
SK-MEL-28 melanoma
  GI50: > 83.8 µM
  TGI: > 100 µM
NCI-H226 lung
  GI50: > 52.7 µM
  TGI: > 100 µM
SW-620 colon
  GI50: > 100 µM
  TGI: > 100 µM
EKVX NSCLC
  GI50: > 100 µM
  TGI: > 100 µM
OVCAR-8 ovarian
  GI50: > 100 µM
  TGI: > 100 µM
SR leukemia
  GI50: 13.6 µM
  TGI: 33.6 µM
LOX IMVI melanoma
  GI50: > 100 µM
  TGI: > 100 µM
UO-31 renal
  GI50: 60.1 µM
  TGI: > 100 µM
BT-549 breast
  GI50: > 100 µM
  TGI: > 100 µM
RPMI-8226 leukemia
  GI50: 48.3 µM
  TGI: > 100 µM
